Molecular target: T1, Human factor Xa (Homo sapiens, UniProt P00742)
T1 construct: leads from XII to XIIa to XIa to IXa and to the conversion of X to Xa; purchased Enzyme Research Laboratories, South Bend Ind
Assay: Xa Assay
Type: biochemical
Method: Human factor Xa (0.3 nM) and 0.15 mM N-a-Benzyloxycarbonyl-D-arginyl-L-glycyl-L-arginine-p-nitroaniline-dihydrochloride (S-2765) are added to a 96-well assay plate containing either inhibitor or buffer (50 mM Tris-HCl, pH 8.0, 100 mM NaCl, 0.1% BSA). The reaction, in a final volume of 100 ul is measured immediately at 405 nm to determine background absorbance. The plate is incubated at room temperature for 60 min, at which time the rate of hydrolysis of the substrate is measured by monitoring the reaction at 405 nm for the release of p-nitroaniline. Percent inhibition of Xa activity is calculated from OD405 nm value from the experimental and control sample.
Recombinant soluble TF, consisting of amino acids 1-219 of the mature protein sequence was expressed in E. coli and purified using a Mono Q Sepharose FPLC. Recombinant human VIIa was purchased from American Diagnostica, Greenwich Conn. and chromogenic substrate N-Methylsulfonyl-D-phe-gly-arg-p-nitroaniline was prepared by American Peptide Company, Inc., Sunnyvale, Calif. Factor Xa was obtained from Enzyme Research Laboratories, South Bend Ind., thrombin from Calbiochem, La Jolla, Calif., and trypsin and L-BAPNA from Sigma, St. Louis Mo. The chromogenic substrates S-2765 and S-2238 were purchased from Chromogenix, Sweden.

T1 sequence (P00742 235-488 limits assumed): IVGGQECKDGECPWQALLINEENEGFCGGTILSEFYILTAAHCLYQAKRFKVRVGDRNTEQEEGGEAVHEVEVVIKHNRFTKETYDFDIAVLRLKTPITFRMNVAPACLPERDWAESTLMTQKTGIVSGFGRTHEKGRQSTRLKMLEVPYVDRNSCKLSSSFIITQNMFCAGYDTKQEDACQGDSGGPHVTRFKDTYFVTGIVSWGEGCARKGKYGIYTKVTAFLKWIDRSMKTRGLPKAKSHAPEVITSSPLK
T1 sequence (P00742 41-179 limits assumed): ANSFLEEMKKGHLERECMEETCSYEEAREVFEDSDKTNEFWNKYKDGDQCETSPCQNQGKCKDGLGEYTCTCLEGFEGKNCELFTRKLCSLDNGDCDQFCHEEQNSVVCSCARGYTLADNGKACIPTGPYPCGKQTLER

| Compound | IC50 [µM] |
| --- | --- |
| CC(C)Nc1ccc(-c2cc(N)cc(N)c2)c(CC(=O)NCc2ccc(C(=N)N)cc2)[n+]1[O-] [Example 7] | > 100 |
| CC(C)Nc1ccc(/C=C/c2ccccc2)c(CC(=O)NCc2ccc(C(=N)N)cc2)[n+]1[O-] [Example 12] | > 100 |

Reference: patent publication US6828338B2, “Substituted polycyclic aryl and heteroaryl pyridines useful for selective inhibition of the coagulation cascade” (Pharmacia Corporation, priority 2000, dated 2004)
